This is an account of results in patent US6215002A, “Pyrrolopyrrolone derivatives as inhibitors of neutrophil elastase” (priority 1996, dated 2001).

Usually IC50 stands for the concentration at which inhibition is half-maximal.

Counter-ions that a name gives are not always drawn.

This assay addresses T1, human neutrophil elastase (Homo sapiens, UniProt P08246).
T1 sequence (P08246 30-267): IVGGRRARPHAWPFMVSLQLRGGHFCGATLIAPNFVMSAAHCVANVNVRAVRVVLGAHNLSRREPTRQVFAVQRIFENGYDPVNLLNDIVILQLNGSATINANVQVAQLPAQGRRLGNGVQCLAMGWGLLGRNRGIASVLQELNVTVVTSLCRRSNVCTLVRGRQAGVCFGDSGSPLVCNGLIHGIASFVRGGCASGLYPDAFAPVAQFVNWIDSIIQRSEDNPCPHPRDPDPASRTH
Briefly: In vitro assay of human neutrophil elastase (HNE). The settings on record: 118 nM purified human neutrophil elastase, pH 8.6, 15 min incubation at 30° C., MeO-succinyl-alanyl-alanyl-prolyl-valyl-p-nitroanilide substrate; read-out: HNE IC50. Type of assay: biochemical. The procedure, abridged:
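Residual activity was taken as the 10 min rate of absorbance rise at 405 nm after adding 0.6 mM MeO-succinyl-AAPV-p-nitroanilide. Curve fitting of activity against concentration gave IC50.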
As for `CCC[C@H]1C(=O)N(S(C)(=O)=O)[C@H]2CCN(C(=O)C3CCCN3C)[C@H]12` (relative stereo) [Example 111, rel-(3R,3aR,6aS)-1-Methanesulfonyl-4-(1-methyl-pyrrolidine-2-carbonyl)-3-propyl-hexahydro-pyrrolo[3,2-b]pyrrol-2-one], the 50% inhibitory concentration (IC50) came out at 580 nM.
To `CCC[C@H]1C(=O)N(S(C)(=O)=O)[C@H]2CCN(C(=O)Cn3ccccc3=O)[C@H]12` (relative stereo) [Example 112, rel-(3R,3aR,6aS)-1-Methanesulfonyl-4-[(2-oxo-2H-pyridin-1-yl)-acetyl]-3-propyl-hexahydro-pyrrolo[3,2-b]pyrrol-2-one] belongs 222 nM; to `CCC[C@H]1C(=O)N(S(C)(=O)=O)[C@H]2CCN(C(=O)Cn3ccc(=O)cc3)[C@H]12` (relative stereo) [Example 113, rel-(3R,3aR,6aS)-1-Methanesulfonyl-4-[(4-oxo-4H-pyridin-1-yl)-acetyl]-3-propyl-hexahydro-pyrrolo[3,2-b]pyrrol-2-one], 304 nM.
With `CCC[C@H]1C(=O)N(S(C)(=O)=O)[C@H]2CCN(C(=O)CNC(C)=O)[C@H]12` (relative stereo) [Example 114, rel-N-[2-(4-Methanesulfonyl-5-oxo-6R-propyl-hexahydro-(3aS,6aR)-pyrrolo[3,2-b]pyrrol-1-yl)-2-oxo-ethyl]-acetamide] the figure was 42 nM; with `CCC[C@H]1C(=O)N(S(C)(=O)=O)[C@H]2CCN(S(=O)(=O)c3ccc(C(=O)N4CCCCC4)cc3)[C@H]12` (relative stereo) [Example 119, rel-(3R,3aR,6aS)-1-Methanesulfonyl-4-[4-(piperidine-1-carbonyl)-benzenesulfonyl]-3-propyl-hexahydro-pyrrolo[3,2-b]pyrrol-2-one], 34 nM; with `CCC[C@H]1C(=O)N(S(C)(=O)=O)[C@H]2CCN(C(=O)c3ccc(NC(C)=O)cc3)[C@H]12` (relative stereo) [Example 120, rel-N-[4-(4-Methanesulfonyl-5-oxo-6R-propyl-hexahydro-(3aS,6aR)-pyrrolo[3,2-b]pyrrole-1-carbonyl)-phenyl]-acetamide], 42 nM.
Take `CCC[C@H]1C(=O)N(S(C)(=O)=O)[C@H]2CCN(S(=O)(=O)c3ccc(C(=O)NCCN4CCCCC4)cc3)[C@H]12` (relative stereo) [Example 121, rel-4-(4-Methanesulfonyl-5-oxo-6R-propyl-hexahydro-(3aS,6aR)-pyrrolo[3,2-b]pyrrole-1-sulfonyl)-N-(2-piperidin-1-yl-ethyl)-benzamide hydrochloride]: the IC50 is 14 nM.
To `CCC[C@H]1C(=O)N(S(C)(=O)=O)[C@H]2CCN(S(=O)(=O)c3ccc(C(=O)O)cc3)[C@@H]12` (relative stereo) [Example 122, rel-(3aS,6R,6aS)-4-(4-Methanesulfonyl-5-oxo-6-propyl-hexahydro-pyrrolo[3,2-b]pyrrole-1-sulfonyl)-benzoic acid] belongs 4 nM.
As to `CCC[C@H]1C(=O)N(S(C)(=O)=O)[C@H]2CCN(S(=O)(=O)c3ccc(C(=O)NCCN(C)C)cc3)[C@H]12` (relative stereo) [Example 123, rel-N-(2-Dimethylamino-ethyl)-4-(4-methanesulfonyl-5-oxo-6R-propyl-hexahydro-(3aS,6aR)-pyrrolo[3,2-b]pyrrole-1-sulfonyl)-benzamide hydrochloride], the concentration for half-maximal inhibition (IC50) turned out to be 14 nM.
On to `CCC[C@H]1C(=O)N(S(C)(=O)=O)[C@H]2CCN(S(=O)(=O)c3ccc(C(=O)NC)cc3)[C@H]12` (relative stereo) [Example 124, rel-(3aS,6R,6aR)-4-(4-Methanesulfonyl-5-oxo-6-hexahydro-pyrrolo[3,2-b]pyrrole-1-sulfonyl)-N-methyl-benzamide], for which the IC50 was found to be 8 nM.
To `CCC[C@H]1C(=O)N(S(C)(=O)=O)[C@H]2CCN(S(=O)(=O)c3ccc(C(=O)NC4CC4)cc3)[C@H]12` (relative stereo) [Example 125, rel-N-Cyclopropyl-4-(4-methanesulfonyl-5-oxo-6R-propyl-hexahydro-(3aS,6aR)-pyrrolo[3,2-b]pyrrole-1-sulfonyl)-benzamide] belongs 13 nM; to `CCC[C@H]1C(=O)N(S(C)(=O)=O)[C@H]2CCN(S(=O)(=O)c3ccc(C(=O)N(C)C)cc3)[C@H]12` (relative stereo) [Example 126, rel-4-(4-Methanesulfonyl-5-oxo-6R-propyl-hexahydro-(3aS,6aR)-pyrrolo[3,2-b]pyrrole-1-sulfonyl)-N,N-dimethyl-benzamide], 10 nM.
`CCC[C@H]1C(=O)N(S(C)(=O)=O)[C@H]2CCN(S(=O)(=O)c3ccc(C(=O)N4CCN(C)CC4)cc3)[C@H]12` (relative stereo) [Example 127, rel-(3R,3aR,6aS)-1-Methanesulfonyl-4-[4-(4-methyl-piperazine-1-carbonyl)-benzenesulfonyl]-3-propyl-hexahydro-pyrrolo[3,2-b]pyrrol-2-one hydrochloride]: the IC50 turned out to be 40 nM.
As for `CCC[C@H]1C(=O)N(S(C)(=O)=O)[C@H]2CCN(C(=O)/C=C/C(=O)OCC)[C@H]12` (relative stereo) [Example 128, rel-(3R,3aR,6aS)-4-(4-Methanesulfonyl-5-oxo-6-propyl-hexahydro-pyrrolo[3,2-b]pyrrole-1-yl)-4-oxo-but-2E-enoic acid ethyl ester], the IC50 is 30 nM.
With `CCC[C@H]1C(=O)N(S(C)(=O)=O)[C@H]2CCN(C(=O)/C=C/C(=O)O)[C@H]12` (relative stereo) [Example 129, rel-4-(4-Methanesulfonyl-5-oxo-6R-propyl-hexahydro-(3aS,6aR)-pyrrolo[3,2-b]pyrrol-1-yl)-oxo-but-2-E-enoic acid] the figure was 14 nM; with `CCC[C@H]1C(=O)N(S(C)(=O)=O)[C@H]2CCN(C(=O)/C=C/C(=O)N3CCN(C)CC3)[C@H]12` (relative stereo) [Example 130, rel-(3R,3aR,6aS)-1-(4-Methanesulfonyl-5-oxo-6-propyl-hexahydro-pyrrolo[3,2-b]pyrrol-1-yl)-4-(4-methyl-piperazin-1-yl)-but-2E-ene-1,4-dione hydrochloride], 47 nM.
With `C/C=C/C(=O)N1CC[C@H]2[C@H]1[C@@H](CCC)C(=O)N2S(C)(=O)=O` (relative stereo) [Example 131, rel-(3R,3aR,6aS)-4-But-2E-enoyl-1-methanesulfonyl-3-propyl-hexahydro-pyrrolo[3,2-b]pyrrol-2-one] the figure was 102 nM; with `CCC[C@H]1C(=O)N(S(C)(=O)=O)[C@H]2CCN(C(=O)/C=C/c3ccc(CN4CCN(C)CC4)cc3)[C@H]12` (relative stereo) [Example 132, rel-(3R,3aR,6aS)-1-Methanesulfonyl-4-{3-(4-(4-methyl-piperazin-1-ylmethy)-phenyl-(E)-acryloyl}-3-propyl-hexahydro-pyrrolo[3,2-b]pyrrol-2-one dihydrochloride], 83 nM.
To `CCC[C@H]1C(=O)N(S(C)(=O)=O)[C@H]2CCN(C(=O)/C=C/c3ccc(CN4CCCCC4)cc3)[C@H]12` (relative stereo) [Example 133, rel-(3R,3aR,6aS)-1-Methanesulfonyl-4-[3-(4-piperidin-1-ylmethyl-phenyl)-(E)-acryloyl]-3-propyl-hexahydro-pyrrolo[3,2-b]pyrrol-2-one hydrochloride] belongs 61 nM; to `CCC[C@H]1C(=O)N(S(C)(=O)=O)[C@H]2CCN(C(=O)/C=C/c3ccc(NC(C)=O)cc3)[C@H]12` (relative stereo) [Example 134, rel-N-{4-[3-(4-Methanesulfonyl-5-oxo-6R-propyl-hexahydro-(3aS,6aR)-pyrrolo[3,2-b]pyrrol-1-yl)-3-oxo-(E)-propenyl]-phenyl}acetamide], 23 nM.
As for `CO[C@H]1C(=O)N(S(C)(=O)=O)[C@H]2CCN(C(=O)OCc3ccccc3)[C@H]12` (relative stereo) [Example 156, rel-(3aS,6R,6aS)-4-Methanesulfonyl-6-methoxy-5-oxo-hexahydro-pyrrolo[3,2-b]pyrrole-1-carboxylic acid benzyl ester], the half-maximal inhibitory concentration (IC50) stood at 160 nM.
For `CS[C@H]1C(=O)N(S(C)(=O)=O)[C@H]2CCN(C(=O)OCc3ccccc3)[C@H]12` (relative stereo) [Example 157], the IC50 turned out to be 209 nM.
With `CCC[C@H]1C(=O)N(S(=O)(=O)CC)[C@H]2CCN(C(=O)CCN3CCCCC3)[C@H]12` (relative stereo) [Example 160, rel-(3R,3aR,6aS)-1-Ethanesulfonyl-4-(3-piperidin-1-yl-propionyl)-3-propyl-hexahydro-pyrrolo[3,2-b]pyrrol-2-one DL-tartrate] the figure was 119 nM; with `CCC[C@H]1C(=O)N(S(=O)(=O)C(C)C)[C@H]2CCN(C(=O)CCN3CCCCC3)[C@H]12` (relative stereo) [Example 161, rel-(3R,3aR,6aS)-4-(3Piperidin-1-yl-propionyl)-1-(propane-2-sulfonyl)-3-propyl-hexahydro-pyrrol[3,2-b]pyrrol-2-one DL-tartrate], 1030 nM.
To `CCC[C@H]1C(=O)N(S(=O)(=O)CCC)[C@H]2CCN(C(=O)CCN3CCCCC3)[C@H]12` (relative stereo) [Example 162, rel-(3R,3aR,6aS)-4-(3-Piperidin-1-yl-propionyl)-1-(propane-1-sulfonyl)-3-propyl-hexahydro-pyrrolo[3,2-b]pyrrol-2-one DL-tartrate] belongs 62 nM; to `CCCCS(=O)(=O)N1C(=O)[C@H](CCC)[C@@H]2[C@@H]1CCN2C(=O)CCN1CCCCC1` (relative stereo) [Example 163, rel-(3R,3aR,6aS)-1-(Butane-1-sulfonyl)-4-(3-piperidin-1-yl-propionyl)-3-propyl-hexahydro-pyrrolo[3,2-b]pyrrol-2-one DL-tartrate], 103 nM.
